Results: ChEMBL document CHEMBL3621060, “Synthesis and anticancer activities of novel 8-azapurine carbocyclic nucleoside hydrazones” (Bioorg Med Chem Lett, 2015)

Legend:
[1] = system: A549; assay: Anticancer activity against human A549 cells assessed as inhibition of cell growth at 10 uM incubated for 4 days by CCK8 assay; type: functional; settings: A549, 96 h, read-out: GI
[2] = Anticancer activity against human HuH7 cells assessed as inhibition of cell growth at 10 uM incubated for 4 days by CCK8 assay; type: functional; settings: Huh-7, 96 h, read-out: GI
[3] = Anticancer activity against human HuH7 cells assessed as inhibition of cell growth incubated for 4 days by CCK8 assay; type: functional, cell-based; settings: Huh-7, 96 h
[4] = system: P388; assay: Cytotoxicity against mouse P388 cells; type: functional; settings: read-out: ED50 (the source's name)

Row | SMILES | inhibition of growth at 10 µM [1] | inhibition of growth at 10 µM [2] | IC50 [3] | EC50 [4]
1 | CCCSc1nc(N/N=C/c2ccccc2)c2nnn([C@@H]3C[C@H](O)[C@@H](O)[C@H]3O)c2n1 | 22.9% | 20.1% | – | –
2 | CCCSc1nc(N/N=C/c2ccc(F)c(F)c2)c2nnn([C@@H]3C[C@H](O)[C@@H](O)[C@H]3O)c2n1 | 26.9% | 31.5% | – | –
3 | CCCSc1nc(N/N=C/c2ccccc2O)c2nnn([C@@H]3C[C@H](O)[C@@H](O)[C@H]3O)c2n1 | 24.3% | 34.5% | – | –
4 | CCCSc1nc(N/N=C/c2cccc(O)c2)c2nnn([C@@H]3C[C@H](O)[C@@H](O)[C@H]3O)c2n1 | 21.4% | 36.5% | – | –
5 | CCCSc1nc(N/N=C/c2ccc(O)cc2)c2nnn([C@@H]3C[C@H](O)[C@@H](O)[C@H]3O)c2n1 | 32.3% | 43.8% | – | –
6 | CCCSc1nc(N/N=C/c2ccc(O)cc2O)c2nnn([C@@H]3C[C@H](O)[C@@H](O)[C@H]3O)c2n1 | 33% | 38.3% | – | –
7 | CCCSc1nc(N/N=C/c2ccccc2OC)c2nnn([C@@H]3C[C@H](O)[C@@H](O)[C@H]3O)c2n1 | 31.6% | 43.8% | – | –
8 | CCCSc1nc(N/N=C/c2ccc(OC)cc2)c2nnn([C@@H]3C[C@H](O)[C@@H](O)[C@H]3O)c2n1 | 69.2% | 57.3% | – | –
9 | CCCSc1nc(N/N=C/c2ccc(OC)c(OC)c2)c2nnn([C@@H]3C[C@H](O)[C@@H](O)[C@H]3O)c2n1 | 28.9% | 26.9% | – | –
10 | CCCSc1nc(N/N=C/c2ccccc2Cl)c2nnn([C@@H]3C[C@H](O)[C@@H](O)[C@H]3O)c2n1 | 30.5% | 37.7% | – | –
11 | CCCSc1nc(N/N=C/c2ccc(Cl)cc2)c2nnn([C@@H]3C[C@H](O)[C@@H](O)[C@H]3O)c2n1 | 34.2% | 47.8% | – | –
12 | CCCSc1nc(N/N=C/c2ccc(Cl)cc2Cl)c2nnn([C@@H]3C[C@H](O)[C@@H](O)[C@H]3O)c2n1 | 41.6% | 51.2% | – | –
13 | CCCSc1nc(N/N=C/c2cccc([N+](=O)[O-])c2)c2nnn([C@@H]3C[C@H](O)[C@@H](O)[C@H]3O)c2n1 | 68% | 58.5% | – | –
14 | CCCSc1nc(N/N=C/c2ccc([N+](=O)[O-])cc2)c2nnn([C@@H]3C[C@H](O)[C@@H](O)[C@H]3O)c2n1 | 67.6% | 68% | 11.7 µM | –
15 | CCCSc1nc(N/N=C/c2ccccn2)c2nnn([C@@H]3C[C@H](O)[C@@H](O)[C@H]3O)c2n1 | 38.6% | 52.5% | – | –
16 | CCCSc1nc(N/N=C/c2cccs2)c2nnn([C@@H]3C[C@H](O)[C@@H](O)[C@H]3O)c2n1 | 38.8% | 50% | – | –
17 | Nc1ncnc2c1nnn2[C@@H]1C[C@H](CO)[C@H](O)[C@H]1O | – | – | – | 0.38 µM
18 | O=c1[nH]cc(F)c(=O)[nH]1 [FLUOROURACIL] | 64.5% | 78.7% | – | –
